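The compound was tested at five concentrations on cells cultured in 96-well plates, with a 48-hour exposure period. GI50: concentration for 50% inhibition of growth. TGI: concentration producing complete growth inhibition.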
What was measured:
Test in all cases: DTP human tumour cell line panel, 48 h
[1] = tested on: MALME-3M melanoma
[2] = tested on: A498 renal
[3] = tested on: HS 578T breast
[4] = tested on: EKVX NSCLC
[5] = tested on: DU-145 prostate
[6] = tested on: SNB-19 CNS
[7] = tested on: NCI-H226 lung
[8] = tested on: CAKI-1 renal
[9] = tested on: A549 NSCLC
[10] = tested on: IGROV1 ovarian
[11] = tested on: UO-31 renal
[12] = tested on: U251 CNS
[13] = tested on: HOP-92 NSCLC
[14] = tested on: COLO 205 colon
[15] = tested on: KM12 colon
[16] = tested on: UACC-62 melanoma
[17] = tested on: NCI/ADR-RES ovarian
[18] = tested on: SR leukemia
[19] = tested on: HCT-116 colon
[20] = tested on: MOLT-4 leukemia
[21] = tested on: SNB-75 CNS
[22] = tested on: M14 melanoma
[23] = tested on: SW-620 colon
[24] = tested on: CCRF-CEM leukemia
[25] = tested on: TK-10 renal
[26] = tested on: SK-MEL-2 melanoma
[27] = tested on: MDA-MB-231 breast
[28] = tested on: K-562 leukemia
[29] = tested on: HCT-15 colon
[30] = tested on: RPMI-8226 leukemia
[31] = tested on: SF-268 CNS
[32] = tested on: RXF 393 renal
[33] = tested on: MCF7 breast
[34] = tested on: T-47D breast
[35] = tested on: HL-60(TB) leukemia
[36] = tested on: MDA-MB-435
[37] = tested on: SF-539 CNS
[38] = tested on: HOP-62 NSCLC
[39] = tested on: LOX IMVI melanoma
[40] = tested on: SN12C renal
[41] = tested on: OVCAR-8 ovarian
[42] = tested on: SK-MEL-5 melanoma
[43] = tested on: NCI-H522 lung
[44] = tested on: HCC-2998 colon
[45] = tested on: OVCAR-5 ovarian
[46] = tested on: OVCAR-4 ovarian
[47] = tested on: SK-MEL-28 melanoma
[48] = tested on: PC-3 prostate
[49] = tested on: ACHN renal
[50] = tested on: HT29 colon
[51] = tested on: UACC-257 melanoma
[52] = tested on: SF-295 CNS
[53] = tested on: NCI-H460 lung
[54] = tested on: OVCAR-3 ovarian
[55] = tested on: NCI-H23 lung

Question: How did the GI50 [1] turn out when `C[n+]1c(/C=C/c2c(O)ccc3ccccc23)ccc2ccccc21` was run?
Answer: 5.3 µM

Question: What about the TGI [1] of the same compound?
Answer: 12.7 µM

Question: What about the GI50 [2] of the same compound?
Answer: 2340 nM

Question: What about the TGI [2] of the same compound?
Answer: 9.43 µM

Question: And the GI50 [3]?
Answer: 5.3 µM

Question: And the TGI [3]?
Answer: 21.5 µM

Question: And the GI50 [4]?
Answer: 4.72 µM

Question: And the TGI [4]?
Answer: 12.9 µM

Question: What about the GI50 [5] of the same compound?
Answer: 6.76 µM

Question: And the TGI [5]?
Answer: 13.9 µM

Question: And the GI50 [6]?
Answer: 6.56 µM

Question: And the TGI [6]?
Answer: 14.8 µM

Question: What about the GI50 [7] of the same compound?
Answer: 5.65 µM

Question: What about the TGI [7] of the same compound?
Answer: 13.2 µM

Question: What about the GI50 [8] of the same compound?
Answer: 5.39 µM

Question: And the TGI [8]?
Answer: 12.3 µM

Question: And the GI50 [9]?
Answer: 7.76 µM

Question: What about the TGI [9] of the same compound?
Answer: 16.1 µM

Question: What about the GI50 [10] of the same compound?
Answer: 4.6 µM

Question: And the TGI [10]?
Answer: 12.7 µM

Question: And the GI50 [11]?
Answer: 1680 nM

Question: What about the TGI [11] of the same compound?
Answer: 12 µM

Question: What about the GI50 [12] of the same compound?
Answer: 5.43 µM

Question: What about the TGI [12] of the same compound?
Answer: 13.8 µM

Question: And the GI50 [13]?
Answer: 854 nM

Question: And the TGI [13]?
Answer: 6.17 µM

Question: What about the GI50 [14] of the same compound?
Answer: 4.07 µM

Question: And the TGI [14]?
Answer: 10.8 µM

Question: What about the GI50 [15] of the same compound?
Answer: 4.33 µM

Question: And the TGI [15]?
Answer: 11.2 µM

Question: And the GI50 [16]?
Answer: 5.77 µM

Question: And the TGI [16]?
Answer: 12.2 µM

Question: What about the GI50 [17] of the same compound?
Answer: 5.64 µM

Question: And the TGI [17]?
Answer: 14.5 µM

Question: What about the GI50 [18] of the same compound?
Answer: 1210 nM

Question: What about the TGI [18] of the same compound?
Answer: 3.31 µM

Question: And the GI50 [19]?
Answer: 3.06 µM

Question: What about the TGI [19] of the same compound?
Answer: 10.3 µM

Question: What about the GI50 [20] of the same compound?
Answer: 7.01 µM

Question: And the TGI [20]?
Answer: 23.4 µM

Question: And the GI50 [21]?
Answer: 6.15 µM

Question: And the TGI [21]?
Answer: 14.2 µM

Question: What about the GI50 [22] of the same compound?
Answer: 5.8 µM

Question: And the TGI [22]?
Answer: 12.8 µM

Question: What about the GI50 [23] of the same compound?
Answer: 6.06 µM

Question: What about the TGI [23] of the same compound?
Answer: 16.1 µM

Question: What about the GI50 [24] of the same compound?
Answer: 2380 nM

Question: And the TGI [24]?
Answer: 17.3 µM

Question: And the GI50 [25]?
Answer: 5.49 µM

Question: And the TGI [25]?
Answer: 11.7 µM

Question: And the GI50 [26]?
Answer: 5.91 µM

Question: And the TGI [26]?
Answer: 13.3 µM

Question: What about the GI50 [27] of the same compound?
Answer: 5.27 µM

Question: What about the TGI [27] of the same compound?
Answer: 12.2 µM

Question: And the GI50 [28]?
Answer: 2220 nM

Question: And the TGI [28]?
Answer: 13.4 µM

Question: And the GI50 [29]?
Answer: 5.84 µM

Question: What about the TGI [29] of the same compound?
Answer: 13.1 µM

Question: And the GI50 [30]?
Answer: 1730 nM

Question: What about the TGI [30] of the same compound?
Answer: 10.1 µM

Question: What about the GI50 [31] of the same compound?
Answer: 7.19 µM

Question: What about the TGI [31] of the same compound?
Answer: 16.7 µM

Question: And the GI50 [32]?
Answer: 4.54 µM

Question: And the TGI [32]?
Answer: 10.7 µM

Question: What about the GI50 [33] of the same compound?
Answer: 1120 nM

Question: What about the TGI [33] of the same compound?
Answer: 7.89 µM

Question: And the GI50 [34]?
Answer: 4.32 µM

Question: And the TGI [34]?
Answer: 14.7 µM

Question: And the GI50 [35]?
Answer: 5.7 µM

Question: And the TGI [35]?
Answer: 13.4 µM

Question: What about the GI50 [36] of the same compound?
Answer: 5.84 µM

Question: What about the TGI [36] of the same compound?
Answer: 12.6 µM

Question: And the GI50 [37]?
Answer: 6.4 µM

Question: What about the TGI [37] of the same compound?
Answer: 13.9 µM

Question: And the GI50 [38]?
Answer: 6.25 µM

Question: And the TGI [38]?
Answer: 13.8 µM

Question: And the GI50 [39]?
Answer: 5.65 µM

Question: And the TGI [39]?
Answer: 12.7 µM

Question: What about the GI50 [40] of the same compound?
Answer: 6.08 µM

Question: What about the TGI [40] of the same compound?
Answer: 13.6 µM

Question: And the GI50 [41]?
Answer: 5.2 µM

Question: What about the TGI [41] of the same compound?
Answer: 14.9 µM

Question: And the GI50 [42]?
Answer: 4.82 µM

Question: What about the TGI [42] of the same compound?
Answer: 10.7 µM

Question: What about the GI50 [43] of the same compound?
Answer: 2520 nM

Question: What about the TGI [43] of the same compound?
Answer: 10.2 µM

Question: And the GI50 [44]?
Answer: 6.63 µM

Question: What about the TGI [44] of the same compound?
Answer: 13.4 µM

Question: And the GI50 [45]?
Answer: 7.19 µM

Question: And the TGI [45]?
Answer: 15.2 µM

Question: What about the GI50 [46] of the same compound?
Answer: 3.39 µM

Question: What about the TGI [46] of the same compound?
Answer: 10.5 µM

Question: And the GI50 [47]?
Answer: 7.91 µM

Question: What about the TGI [47] of the same compound?
Answer: 15.1 µM

Question: What about the GI50 [48] of the same compound?
Answer: 4 µM

Question: And the TGI [48]?
Answer: 11.7 µM

Question: And the GI50 [49]?
Answer: 5.1 µM

Question: What about the TGI [49] of the same compound?
Answer: 11.4 µM

Question: And the GI50 [50]?
Answer: 2040 nM

Question: What about the TGI [50] of the same compound?
Answer: 7.63 µM

Question: And the GI50 [51]?
Answer: 7.17 µM

Question: And the TGI [51]?
Answer: 14.9 µM

Question: What about the GI50 [52] of the same compound?
Answer: 5.82 µM

Question: And the TGI [52]?
Answer: 13.5 µM

Question: What about the GI50 [53] of the same compound?
Answer: 6.32 µM

Question: What about the TGI [53] of the same compound?
Answer: 14.5 µM

Question: What about the GI50 [54] of the same compound?
Answer: 2290 nM

Question: What about the TGI [54] of the same compound?
Answer: 8.38 µM

Question: And the GI50 [55]?
Answer: 5.1 µM

Question: What about the TGI [55] of the same compound?
Answer: 13.7 µM
